What was measured:
[1] = test system: A549 lung adenocarcinoma cells; assay: Proliferation of A549 lung adenocarcinoma cells; format: cell-based, human; details: for Selected from primary screen for growth inhibition of A549 cells at 50 µM: RPMI 1 mM glucose; for Selected for having an IC50 ratio (10 mM glucose : 1 mM glucose) of A549 growth higher than WBC-A: ratio of IC50 on 10 mM and 1 mM glucose, compared to WBC-A
Description: For both adherent A549 and MCF10A H-RAS^V12 cell lines, growth curves were established using the IncuCyte® ZOOM technology. By collecting phase contrast images, the IncuCyte® software provides a calculated confluency percentage from which growth curves can be deducted. The cell number/density was measured by calculating the confluency of phase objects (cells) sticking on the bottom of the well. Cells were seeded at a density of 1000 - 1500 cells/well in a Nunc-Edge™ 96-well plate (Thermo Fisher Scientific) and growth was typically measured over 3 to 5 days. For the measurement of apoptosis induction using the MCF10A H-RAS^V12 cell line, the IncuCyte® Caspase-3/7 green dye was added to the medium in the recommended concentration at the beginning of the growth curve experiment. Apoptosis was detected by taking fluorescent images by excitation at 488 nm followed by IncuCyte® software analysis. Cell growth of the KMS-12-PE multiple myeloma cell line, which grows in suspension, was measured by manual cell counting. Cells were initially seeded at a density of 10^4 cells/well and incubated for 4 days after which the cell number was counted. For all cell lines, the same medium used for pregrowth was also used for the growth curve experiment, albeit with different glucose concentrations depending on the experimental design. With compound administration, the final concentration of DMSO never exceeded 0.1%. Typically, at least four technical repeats were included per condition.

yeast tps1Δ strain = assay: Growth (rescue) of the yeast tps1Δ strain on galactose with or without glucose; format: cell-based, S. cerevisiae; details: 2.5 mM glucose
Description: Growth curves were made by measuring OD595 in a 96-well plate using the Multiskan™ FC Microplate Photometer (Thermo Fisher Scientific). Typically, for tps1Δ rescue experiments, cells were (pre)grown in Complete Synthetic medium containing 110 mM galactose. Compounds were always added 10 min prior to glucose addition to ensure maximal interaction between the cells and compounds. Cells originating from the preculture were harvested, washed in medium without sugar, after which they were resuspended to an OD of 0.1 in 200 µL of the appropriate medium. At least three technical replicates were included per condition. OD595 was measured at 30°C every 30 min with a 10-min shaking interval.

[2] = test system: glucose uptake by tps1Δ yeast cells; assay: Zero-trans uptake of radioactive glucose in tps1Δ yeast cells; format: cell-based, S. cerevisiae; details: tps1∆ cells, 2.5 mM glucose; read-out: IC50 values for 2.5 mM glucose uptake in tps1∆ cells
Description: Zero-trans uptake of radioactively labeled [U-^14C]glucose, [U-^14C]fructose or [U-^14C]galactose by S. cerevisiae cells was determined in accordance with previous studies ([45], [75]). Cells were grown on different carbon sources depending on the experiment. For measuring glucose uptake activity in the tps1Δ and tps1Δ hxtΔ strains, cells were grown on YP medium containing 325 mM glycerol (measurement of 10 s). Typically, for compound characterization and kinetic studies in wild type and tps1Δ strains, cells were (pre)grown on Complete Synthetic medium supplemented with 110 mM galactose (measurement of 10 s). In the experiments on the influence of hexokinase activity on the sugar uptake rate, the measurement duration was shortened to 5 s and cells were always grown on YP medium containing 325 mM glycerol and 430 mM ethanol. After harvesting, cells were washed twice with ice-cold 25 mM MES-buffer pH 6, and resuspended in their respective medium without sugar to a final concentration of 45 mg (wet weight)/mL. The amount of added tracer was estimated to give a response close to at least 1000 counts per min in order to adequately counter background noise. Cells were first preincubated for 10 min at 30°C with the compound to acclimate the cells to the temperature and to allow adequate interaction with the compound prior to uptake. Next, hexose sugar was mixed with the cell suspension, which was then incubated at 30°C for 5 or 10 s, depending on the experiment, after which the cells were rapidly filtered over a glass microfiber filter (Whatman GF/C) and washed three times with ice-cold dH2O. The loaded filter was transferred to a scintillation vial containing 3 mL liquid scintillation cocktail (Ultima-Flo M, Perkin Elmer) and counted using the Hidex 300 SL. Three blank measurements per strain were typically included to account for background signal, for which the cells were first quenched before adding the radioactive label.

C=C1[C@@H](C)[C@H]2[C@H](Cc3ccccc3)NC(=O)[C@]23OC(=O)/C=C/[C@H](O)CCC[C@@H](C)C/C=C/[C@H]3[C@@H]1O [Cytochalasin B, reference compound]
inhibition of A549 cell proliferation in prescreening ([1]; 50 µM, 1 mM glucose, three days): the strongest inhibitor of cell proliferation in this assay

Cc1nc(SCC(=O)N2CC(C)OC(C)C2)c2c(-c3cccs3)csc2n1 (stereo not shown) [WBC-5B]
Selected from primary screen for growth inhibition of A549 cells at 50 µM ([1]; 50 µM): No | Rescue of the tps1∆ strain on 2.5 mM glucose at 100 µM (yeast tps1Δ strain): Yes | Minimal rescue concentration for growth of tps1∆ cells on 2.5 mM glucose (yeast tps1Δ strain): 12.5 µM | IC50 [2]: 22.5 µM

Cc1nc(SCC(=O)NC(N)=O)c2c(-c3cccs3)csc2n1 [WBC-6B]
Selected from primary screen for growth inhibition of A549 cells at 50 µM ([1]; 50 µM): Yes | Selected for having an IC50 ratio (10 mM glucose : 1 mM glucose) of A549 growth higher than WBC-A [1]: Lower IC50 ratio | Rescue of the tps1∆ strain on 2.5 mM glucose at 100 µM (yeast tps1Δ strain): Yes | Minimal rescue concentration for growth of tps1∆ cells on 2.5 mM glucose (yeast tps1Δ strain): 12.5 µM | IC50 [2]: 10.2 µM

Cc1nc(SCC(=O)N(C)CCC#N)c2c(-c3cccs3)csc2n1 [WBC-7B]
Selected from primary screen for growth inhibition of A549 cells at 50 µM ([1]; 50 µM): No | Rescue of the tps1∆ strain on 2.5 mM glucose at 100 µM (yeast tps1Δ strain): Yes | Minimal rescue concentration for growth of tps1∆ cells on 2.5 mM glucose (yeast tps1Δ strain): 6.25 µM | IC50 [2]: 5.41 µM

Cc1nc(SCC(=O)Nc2cc(C)on2)c2c(-c3cccs3)csc2n1 [WBC-10C]
Selected from primary screen for growth inhibition of A549 cells at 50 µM ([1]; 50 µM): Yes | Selected for having an IC50 ratio (10 mM glucose : 1 mM glucose) of A549 growth higher than WBC-A [1]: Lower IC50 ratio | Rescue of the tps1∆ strain on 2.5 mM glucose at 100 µM (yeast tps1Δ strain): Yes | Minimal rescue concentration for growth of tps1∆ cells on 2.5 mM glucose (yeast tps1Δ strain): 6.25 µM | IC50 [2]: 24.8 µM

Cc1nc(SCC(N)=O)c2c(-c3cccs3)csc2n1 [WBC-14A]
Selected from primary screen for growth inhibition of A549 cells at 50 µM ([1]; 50 µM): No | Rescue of the tps1∆ strain on 2.5 mM glucose at 100 µM (yeast tps1Δ strain): Yes | Minimal rescue concentration for growth of tps1∆ cells on 2.5 mM glucose (yeast tps1Δ strain): 25 µM | IC50 [2]: 27.9 µM

COCCCNC(=O)CSc1nc(C)nc2scc(-c3cccs3)c12 [WBC-15B]
Selected from primary screen for growth inhibition of A549 cells at 50 µM ([1]; 50 µM): No | Rescue of the tps1∆ strain on 2.5 mM glucose at 100 µM (yeast tps1Δ strain): Yes | Minimal rescue concentration for growth of tps1∆ cells on 2.5 mM glucose (yeast tps1Δ strain): 25 µM | IC50 [2]: 32.7 µM

CCn1c(CCC(N)=O)nnc1Sc1nc(C)nc2scc(-c3cccs3)c12 [WBC-16C]
Selected from primary screen for growth inhibition of A549 cells at 50 µM ([1]; 50 µM): Yes | Selected for having an IC50 ratio (10 mM glucose : 1 mM glucose) of A549 growth higher than WBC-A [1]: Lower IC50 ratio | Rescue of the tps1∆ strain on 2.5 mM glucose at 100 µM (yeast tps1Δ strain): Yes | Minimal rescue concentration for growth of tps1∆ cells on 2.5 mM glucose (yeast tps1Δ strain): 50 µM | IC50 [2]: 49.6 µM

Cc1nc(Sc2nnc(-c3cccnc3)n2C)c2c(-c3cccs3)csc2n1 [WBC-23A]
Selected from primary screen for growth inhibition of A549 cells at 50 µM ([1]; 50 µM): Yes | Selected for having an IC50 ratio (10 mM glucose : 1 mM glucose) of A549 growth higher than WBC-A [1]: Lower IC50 ratio | Rescue of the tps1∆ strain on 2.5 mM glucose at 100 µM (yeast tps1Δ strain): Yes | Minimal rescue concentration for growth of tps1∆ cells on 2.5 mM glucose (yeast tps1Δ strain): 25 µM | IC50 [2]: 8.6 µM

Cc1nc(Sc2nnc(-c3ccncc3)n2C)c2c(-c3cccs3)csc2n1 [WBC-26A]
Selected from primary screen for growth inhibition of A549 cells at 50 µM ([1]; 50 µM): Yes | Selected for having an IC50 ratio (10 mM glucose : 1 mM glucose) of A549 growth higher than WBC-A [1]: Lower IC50 ratio | Rescue of the tps1∆ strain on 2.5 mM glucose at 100 µM (yeast tps1Δ strain): Yes | Minimal rescue concentration for growth of tps1∆ cells on 2.5 mM glucose (yeast tps1Δ strain): 25 µM | IC50 [2]: 5.35 µM

Cc1nc(SCCN2CCOC2=O)c2c(-c3cccs3)csc2n1 [WBC-26C]
Selected from primary screen for growth inhibition of A549 cells at 50 µM ([1]; 50 µM): No | Rescue of the tps1∆ strain on 2.5 mM glucose at 100 µM (yeast tps1Δ strain): Yes | Minimal rescue concentration for growth of tps1∆ cells on 2.5 mM glucose (yeast tps1Δ strain): 25 µM | IC50 [2]: 23.8 µM

CC(=O)NCc1ccc(C(=O)CSc2nc(C)nc3scc(-c4cccs4)c23)o1 [WBC-29B]
Selected from primary screen for growth inhibition of A549 cells at 50 µM ([1]; 50 µM): No | Rescue of the tps1∆ strain on 2.5 mM glucose at 100 µM (yeast tps1Δ strain): Yes | Minimal rescue concentration for growth of tps1∆ cells on 2.5 mM glucose (yeast tps1Δ strain): 6.25 µM | IC50 [2]: 9.23 µM

Cc1nc(SCC(=O)NC(C)(C)C)c2c(-c3cccs3)csc2n1 [WBC-32B]
Selected from primary screen for growth inhibition of A549 cells at 50 µM ([1]; 50 µM): Yes | Selected for having an IC50 ratio (10 mM glucose : 1 mM glucose) of A549 growth higher than WBC-A [1]: Lower IC50 ratio | Rescue of the tps1∆ strain on 2.5 mM glucose at 100 µM (yeast tps1Δ strain): Yes | Minimal rescue concentration for growth of tps1∆ cells on 2.5 mM glucose (yeast tps1Δ strain): 12.5 µM | IC50 [2]: 30.3 µM

CCn1c(Sc2nc(C)nc3scc(-c4cccs4)c23)nnc1-c1ccncc1 [WBC-43C]
Selected from primary screen for growth inhibition of A549 cells at 50 µM ([1]; 50 µM): Yes | Rescue of the tps1∆ strain on 2.5 mM glucose at 100 µM (yeast tps1Δ strain): Yes | Minimal rescue concentration for growth of tps1∆ cells on 2.5 mM glucose (yeast tps1Δ strain): 12.5 µM | IC50 [2]: 8.93 µM

Cc1nc(SCCN2CCOCC2)c2c(-c3cccs3)csc2n1 [WBC-44A]
Selected from primary screen for growth inhibition of A549 cells at 50 µM ([1]; 50 µM): Yes | Selected for having an IC50 ratio (10 mM glucose : 1 mM glucose) of A549 growth higher than WBC-A [1]: Lower IC50 ratio | Rescue of the tps1∆ strain on 2.5 mM glucose at 100 µM (yeast tps1Δ strain): Yes | Minimal rescue concentration for growth of tps1∆ cells on 2.5 mM glucose (yeast tps1Δ strain): 50 µM | IC50 [2]: 61.8 µM

Cc1nc(SCCO)c2c(-c3cccs3)csc2n1 [WBC-47A]
Selected from primary screen for growth inhibition of A549 cells at 50 µM ([1]; 50 µM): Yes | Selected for having an IC50 ratio (10 mM glucose : 1 mM glucose) of A549 growth higher than WBC-A [1]: Lower IC50 ratio | Rescue of the tps1∆ strain on 2.5 mM glucose at 100 µM (yeast tps1Δ strain): Yes | Minimal rescue concentration for growth of tps1∆ cells on 2.5 mM glucose (yeast tps1Δ strain): 6.25 µM | IC50 [2]: 15.6 µM

CCCc1nnc(Sc2nc(C)nc3scc(-c4cccs4)c23)[nH]1 [WBC-50C]
Selected from primary screen for growth inhibition of A549 cells at 50 µM ([1]; 50 µM): Yes | Selected for having an IC50 ratio (10 mM glucose : 1 mM glucose) of A549 growth higher than WBC-A [1]: Lower IC50 ratio | Rescue of the tps1∆ strain on 2.5 mM glucose at 100 µM (yeast tps1Δ strain): Yes | Minimal rescue concentration for growth of tps1∆ cells on 2.5 mM glucose (yeast tps1Δ strain): 50 µM | IC50 [2]: 67.8 µM

COC(=O)CSc1nc(C)nc2scc(-c3cccs3)c12 [WBC-53A]
Selected from primary screen for growth inhibition of A549 cells at 50 µM ([1]; 50 µM): No | Rescue of the tps1∆ strain on 2.5 mM glucose at 100 µM (yeast tps1Δ strain): Yes | Minimal rescue concentration for growth of tps1∆ cells on 2.5 mM glucose (yeast tps1Δ strain): 12.5 µM | IC50 [2]: 26.8 µM

Cc1nc(Sc2nnc(C(F)(F)F)n2C)c2c(-c3cccs3)csc2n1 [WBC-54C]
Selected from primary screen for growth inhibition of A549 cells at 50 µM ([1]; 50 µM): Yes | Selected for having an IC50 ratio (10 mM glucose : 1 mM glucose) of A549 growth higher than WBC-A [1]: Lower IC50 ratio | Rescue of the tps1∆ strain on 2.5 mM glucose at 100 µM (yeast tps1Δ strain): Yes | Minimal rescue concentration for growth of tps1∆ cells on 2.5 mM glucose (yeast tps1Δ strain): 50 µM | IC50 [2]: 64.7 µM

Cc1nc(Sc2nnc3n2CCC(CN=[N+]=[N-])CC3)c2c(-c3cccs3)csc2n1 (stereo not shown) [WBC-87C]
Selected from primary screen for growth inhibition of A549 cells at 50 µM ([1]; 50 µM): Yes | Selected for having an IC50 ratio (10 mM glucose : 1 mM glucose) of A549 growth higher than WBC-A [1]: Lower IC50 ratio | Rescue of the tps1∆ strain on 2.5 mM glucose at 100 µM (yeast tps1Δ strain): Yes | Minimal rescue concentration for growth of tps1∆ cells on 2.5 mM glucose (yeast tps1Δ strain): 12.5 µM | IC50 [2]: 11.1 µM
